# Source: patent US20050203168A1, “Angiotensin converting enzyme inhibitor use for treatment and prevention of gastrointestinal disorders” (The Regents of the University of Michigan, priority 2004, published 2005)
# Where “and” joins values, the source holds several entries; their conditions need not be identical. Equal entries are not always repeated.
# Tests used:
# IEL TNF-α mRNA = IEL TNF-α mRNA by RT-PCR in SBS and Sham mice given ACE-I; type: in vivo, mouse; conditions: for IEL TNF-α mRNA: 0.6 mg/kg/day i.p. 7 days, ratio over β-actin mRNA
# Method: (§1) Short Bowel Syndrome Model: A 70% mid-small bowel resection was performed (i.e. bowel between 3.5 cm distal to the ligament of Treitz and 3.5 cm proximal to the ileocecal valve), followed by an end-to-end jejuno-ileal anastomosis with 7-0 monofilament, absorbable suture. Postoperatively a subcutaneous bolus of 3 ml 0.9% saline solution was given to maintain hydration status.
# (§2) Sham operation: Mid-small bowel was transsected and re-anastomosed without bowel-resection.
# IEL purification: Isolation of purified IEL from EC was performed by direct magnetic separation. Magnetic beads conjugated with antibody to CD45 (pan-lymphoid marker) were used to segregate IEL from EC (BioMag SelectaPure Anti-Mouse CD 45R Antibody Particles, Polyscience Inc., Warrington, Pa.). Magnetic separation was performed twice to further deplete EC. Final IEL purity was greater than 99% by flow cytometry.
# Isolation of total RNA: A guanidine isothiocyanate/chloroform extraction method was performed using Trizol (Gibco BRL, Gaithersburg, Md.) according to manufacturer's directions.
# Reverse transcriptase polymerase chain reaction (RT-PCR): mRNA (poly-A positive) was reversed transcribed into cDNA following a standard protocol. Specific primers for selected gene sequences were designed. PCR and gel were run under standard conditions. To ensure that DNA product was generated at the exponential portion of the product curve, the following cycle numbers were used: 28 cycles for ACE; 32 cycles for Rap2 interacting protein and TNF-α; and 34 cycles for lipocalin 2, amphiregulin, leucine-rich-α2-glycoprotein, and angiotensin II receptors. Gel bands were analyzed by DNA sequencing to ensure the correct product. Kodak EDAS System (Rochester, N.Y.) was used for imaging and quantification. Results were expressed as the ratio of the investigated mRNA over the β-actin mRNA expression.
# (§3) To further understand the relevance of ACE expression on EC apoptosis, ACE-inhibition was used. […] After 1 week, mice were killed, EC apoptotic rates assessed, and IEL mRNA and protein isolated.
# [1] = tested on: epithelial cell (EC) apoptosis; experiment: Epithelial cell apoptosis by TUNEL staining in SBS and Sham mice given ACE-I; type: in vivo, mouse; conditions: for EC Apoptosis (TUNEL analysis): 0.6 mg/kg/day i.p. 7 days
# Method: (§4) Animals: Male, 2 month old, C57BL/6J mice (Jackson Laboratories, Bar Harbor, Me.) were maintained in a 12-hour day-night rhythm at 23° C. and a relative humidity of 40%-60%. 24 hours before surgery chow was exchanged to micro-stabilized rodent liquid diet (TestDiet, Richmond, Ind.). Anesthesia was achieved using sodium pentobarbital (50 mg/kg body weight, intraperitoneally, i.p.). For some experiments B6.129P2-Ace^tm2Unc (ACE^−/−; lacking somatic ACE, generous gift from the Dr. O. Smithies, Duke University), or B6;129S6-Tnf^tm1Gkl (TNF-α-knockout mice, Jackson Labs) were used. Studies conformed, and were approved by the University Committee on Use and Care of Animals at the University of Michigan.
# as §1, §2
# TUNEL staining: Paraffin-embedded tissue was assayed with TUNEL (Terminal deoxynucleotidyl transferase Biotin-dUTP Nick End Labeling) staining, according to slight modification of manufacturer's instructions (ApopTag InSitu Apoptosis Detection Kit, Serological Corporation, Norcross, Ga.): slides were incubated with only ⅓ of the recommended concentration of TdT enzyme, in order to avoid over-staining. Apoptosis rate (percent of EC showing apoptosis) was assessed with TUNEL staining and by morphological criteria (nuclear margination, chromatin and cytoplasmic condensation, shrinkage from neighboring cells, and formation of apoptotic bodies with nuclear and cytoplasmic fragmentation). Each assessment of apoptosis consists of the mean of 8 different crypt-villus-complexes.
# (§5) To further understand the relevance of ACE expression on EC apoptosis, ACE-inhibition was used. ACE-I (enalaprilat, 0.6 mg/kg/day i.p.) was given to both SBS (SBS+ACE-I), and sham operated (Sham+ACE-I) mice over a 7 day period, starting on the day after surgery. This latter group was studied as an additional control to assess the effects of ACE-I in the absence of a SBS. After 1 week, mice were killed, EC apoptotic rates assessed, and IEL mRNA and protein isolated.
# IEL ACE mRNA = IEL ACE mRNA by real time PCR in SBS and Sham mice given ACE-I; type: in vivo, mouse; conditions: enalaprilat 0.6 mg/kg/day i.p. 7 days, ratio ACE-cDNA copies over β-actin-cDNA copies
# Method: as §1, §2
# IEL purification: Isolation of purified IEL from EC was performed by direct magnetic separation. Magnetic beads conjugated with antibody to CD45 (pan-lymphoid marker) were used to segregate IEL from EC (BioMag SelectaPure Anti-Mouse CD 45R Antibody Particles, Polyscience Inc., Warrington, Pa.). Magnetic separation was performed twice to further deplete EC. […]
# Real time PCR: Real-time PCR was run to better quantify actual changes in ACE expression. cDNA was also used for real time PCR. The same primers for ACE and β-actin were used as for conventional PCR, SYBR Green I was utilized for fluorescence. […] Ct- values of ACE and β-actin were converted to numbers of cDNA copies, and results expressed as the ratio of ACE over β-actin expression.
# as §3
# DSS-induced colitis = DSS-induced colitis mouse model; type: in vivo
# Method: Male C57BL/6 specific-pathogen-free 2-month-old mice were kept in a 12-hour day/night environment maintained at 23° C. and a relative humidity of 40-60%. All mice drank 2.5% (w/v) DSS in water for 7 days followed by one day of plain water, while being fed normal mouse chow. Mice either received daily enalaprilat injection (0.015 mg/day, injection volume 0.5 ml, intraperitoneal) (n=6, “ACE-I”) or daily normal saline injection 0.5 ml (n=6, “Saline”). Body weight and hemoccult stool reaction were recorded. After the eight days of treatment, mice were euthanized with CO2, and colonic samples were immediately taken for histology and mucosal RNA extraction. Distal 1-cm colonic segments were excised, opened longitudinally, and fixed in 10% neutral buffered formalin. The remainder of the colon, including the cecum, was washed, cut into pieces, and mixed gently at 37° C. in EDTA/dithiothreitol buffer. The resulting mixture of epithelial cells and intraepithelial lymphocytes was then filtered through nylon wool and pelleted by centrifugation. Total RNA of the cell pellet was obtained using TRIZOL reagent and chloroform-isopropanol-ethanol extraction. Reverse transcription of RNA was done in the presence of RNAse inhibitor. RT product was then amplified with forward and reverse primers specific for ACE, TNF-α, and beta-actin, using real-time semiquantitative PCR. PCR results were analyzed by expressing ACE and TNF-α levels as a ratio to beta-actin levels, and were compared using a 2-tailed students' T test. Histologic grading of colitis was done by blinded observers using a standard scale for colitis severity. Histologic scores, as well as body weights and hemoccult results, were compared between groups using a 2-tailed homoscedastic T test.
# SBS mice = experiment: Histology (villus height, crypt depth) of mid-small bowel in SBS and Sham mice given ACE-I; type: in vivo, mouse; conditions: for Crypt depth / Villus height: 0.6 mg/kg/day i.p., 1 week postoperatively, 0.6 mg/kg/day
# Method: as §4, §1, §2
# Histology: A 0.5 cm segment of mid-small bowel was fixed in 10% formaldehyde, and processed for hematoxylin and eosin staining. Villus height and crypt depth were measured using a calibrated micrometer. Each measurement consisted of a mean of 16 different low power fields.
# as §5
# IEL ACE protein = IEL ACE protein by immunoblot in SBS and Sham mice given ACE-I; type: in vivo, mouse; conditions: 0.6 mg/kg/day i.p. 7 days, ratio of ACE over β-actin protein
# Method: as §1, §2
# IEL purification: Isolation of purified IEL from EC was performed by direct magnetic separation. Magnetic beads conjugated with antibody to CD45 (pan-lymphoid marker) were used to segregate IEL from EC (BioMag SelectaPure Anti-Mouse CD 45R Antibody Particles, Polyscience Inc., Warrington, Pa.). […]
# Immunoblot analysis: Protein was extracted from isolated IEL and immunoblots performed by using a Bio-Rad protein assay kit (Bio-Rad Laboratories, Hercules, Calif.), with standard methods. […] Expression for β-actin was determined in the same fashion by re-probing membranes with purified anti-mouse β-actin (1:12000, Sigma-Aldrich, St. Louis, Mo.). Results are expressed as the ratio of ACE over β-actin protein expression.
# as §3
# [2] = tested on: epithelial cell (EC) apoptosis; experiment: Epithelial cell apoptosis/necrosis by Annexin V / propidium iodide flow cytometry in SBS and Sham mice given ACE-I; type: in vivo, mouse; conditions: 0.6 mg/kg/day i.p., 1 week
# Method: as §4, §1, §2
# Annexin V staining: Apoptosis was determined by flow cytometry based on the cell surface expression of phosphatidylserine using Annexin V staining (BD PharMingen, San Diego, Calif.). Propidium iodide was utilized to simultaneously monitor cell necrosis. Flow cytometry was performed by using standard techniques. Separation of EC from IEL was done by forward- and side-scatter gating characteristics. Further confirmation of EC and IEL purity was performed with specific staining of EC with antibody generated by a hybridoma G8.8 and a pan-lymphoid antibody (anti-CD45, PharMingen, San Diego, Calif.): Purity exceeded >98%.
# Mucosal cell isolation: Isolation of mucosal cells was performed using standard protocols. […]
# as §3
# [3] = ACE-I administration to SBS mice
smiles,measurement,setting,value
"C[C@H](N[C@@H](CCc1ccccc1)C(=O)O)C(=O)N1CCC[C@H]1C(=O)O [ACE-I, enalaprilat]",IEL TNF-α mRNA,IEL TNF-α mRNA; SBS + ACE-I mice,0.5 ± 0.07
same,IEL TNF-α mRNA,IEL TNF-α mRNA; Sham + ACE-I mice,0.37 ± 0.07
same,Expression of TNF-α (FIG. 4),IEL TNF-α mRNA; mice with massive small bowel resection administered ACE-I,decreased expression of TNF-α
same,Decline of apoptotic rate (TUNEL) compared to untreated SBS mice,[1]; SBS + ACE-I group,58%
same,EC Apoptosis (TUNEL analysis),[1]; SBS + ACE-I mice,1.8 ± 0.5%
same,Decrease of EC apoptosis (TUNEL) compared to untreated Sham mice,[1]; Sham + ACE-I group,48%
same,EC Apoptosis (TUNEL analysis),[1]; Sham + ACE-I mice,1.9 ± 0.4 %
same,Location of apoptotic cells (TUNEL),"[1]; after ACE-I administration, untreated SBS and Sham: crypts and lower villi",confined to the crypts
same,IEL ACE mRNA,IEL ACE mRNA; SBS + ACE-I mice,0.63 ± 0.25
same,IEL ACE mRNA,IEL ACE mRNA; Sham + ACE-I mice,0.66 ± 0.22
same,ACE levels (mRNA),"DSS-induced colitis; DSS + ACE-I, colonic mucosal ACE as a ratio to beta-actin levels",0.08 ± 0.13
same,Hemocult onset,"DSS-induced colitis; DSS + ACE-I, enalaprilat 0.015 mg/day i.p. daily",4.8 ± 0.8 days
same,Body Weight Loss,"DSS-induced colitis; DSS + ACE-I, enalaprilat 0.015 mg/day i.p. daily, 2.5% DSS 7 days",16.6 ±+2.7%
same,Histologic Grade (histologic colitis score),"DSS-induced colitis; DSS + ACE-I, enalaprilat 0.015 mg/day i.p. daily, after eight days",11.8 ± 1.5
same,Colon histology (FIG. 5),"DSS-induced colitis; DSS colitis, daily enalaprilat injection, saline controls: essentially complete loss of crypts",significant areas retaining colonic crypts as well as surface epithelial cells
same,Time course of development of heme-positive stools,DSS-induced colitis; compared to mice treated only with saline injection (FIG. 6),significantly delayed
same,Change in crypt depth compared to SBS mice,SBS mice; [3],"significant (P=0.02), additional increase in crypt depth"
same,Change in villus height compared to SBS mice,SBS mice; [3],unchanged
same,Crypt depth,SBS mice; SBS + ACE-I mice,145±22 μm and 145 ± 22° μm
same,Villus height,SBS mice; SBS + ACE-I mice,552±56 μm
same,Alterations in histological features,SBS mice; Sham + ACE-I mice,no significant alterations
same,Crypt depth,SBS mice; Sham + ACE-I mice,87±6 μm
same,Villus height,SBS mice; Sham + ACE-I mice,340±20 μm
same,IEL ACE protein,IEL ACE protein; SBS + ACE-I mice,0.14 ± 0.03
same,IEL ACE protein,IEL ACE protein; Sham + ACE-I mice,0.13 ± 0.01
same,EC necrosis (propidium iodide),[2]; SBS + ACE-I mice,5.2±2.6%
same,EC necrosis (propidium iodide),[2]; Sham + ACE-I mice,5.2±2.6%
same,EC apoptosis (Annexin V staining),"[2]; Sham + ACE-I mice, flow cytometry",16.9±8.8%
